Reference: ChEMBL document CHEMBL1122324, “New antihypertensive cannabinoids” (1983)

What was measured:
Details in all cases: route oral
Rattus norvegicus [1] = assay: percentage decrease in heart rate after 1 hr at a dose of 3 mg/kg administered perorally in rats; assay type: functional
Rattus norvegicus [2] = assay: percentage decrease in heart rate after 24 hr at a dose of 1 mg/kg administered perorally in rats; assay type: functional
Rattus norvegicus [3] = assay: Percentage decrease in systolic blood pressure after 6 hr at 1 mg/kg administered perorally in rats; assay type: functional, Artery
Rattus norvegicus [4] = assay: percentage decrease in heart rate after 6 hr at a dose of 10 mg/kg administered perorally in rats; assay type: functional
Rattus norvegicus [5] = assay: Percentage decrease in systolic blood pressure after 1 hr at 30 mg/kg administered perorally in rats; assay type: functional, Artery
Rattus norvegicus [6] = assay: Percentage decrease in systolic blood pressure after 24 hr at 3 mg/kg administered perorally in rats; assay type: functional, Artery
Rattus norvegicus [7] = assay: Percentage decrease in systolic blood pressure after 6 hr at 0.3 mg/kg administered perorally in rats; assay type: functional, Artery
Rattus norvegicus [8] = assay: Percentage decrease in systolic blood pressure after 1 hr at 3 mg/kg administered perorally in rats; assay type: functional, Artery
Rattus norvegicus [9] = assay: percentage decrease in heart rate after 6 hr at a dose of 0.3 mg/kg administered perorally in rats; assay type: functional
Rattus norvegicus [10] = assay: Percentage decrease in systolic blood pressure after 1 hr at 0.3 mg/kg administered perorally in rats; assay type: functional, Artery
Rattus norvegicus [11] = assay: percentage decrease in heart rate after 4 hr at a dose of 1 mg/kg administered perorally in rats; assay type: functional
Rattus norvegicus [12] = assay: Percentage decrease in systolic blood pressure after 24 hr at 0.3 mg/kg administered perorally in rats; assay type: functional, Artery
Rattus norvegicus [13] = assay: Percentage decrease in systolic blood pressure after 24 hr at 30 mg/kg administered perorally in rats; assay type: functional, Artery
Rattus norvegicus [14] = assay: Percentage decrease in systolic blood pressure after 6 hr at 30 mg/kg administered perorally in rats; assay type: functional, Artery
Rattus norvegicus [15] = assay: percentage decrease in heart rate after 24 hr at a dose of 0.3 mg/kg administered perorally in rats; assay type: functional
Rattus norvegicus [16] = assay: percentage decrease in heart rate after 6 hr at a dose of 1 mg/kg administered perorally in rats; assay type: functional
Rattus norvegicus [17] = assay: percentage decrease in heart rate after 4 hr at a dose of 30 mg/kg administered perorally in rats; assay type: functional
Rattus norvegicus [18] = assay: Percentage decrease in systolic blood pressure after 4 hr at 1 mg/kg administered perorally in rats; assay type: functional, Artery
Rattus norvegicus [19] = assay: Percentage decrease in systolic blood pressure after 6 hr at 10 mg/kg administered perorally in rats; assay type: functional, Artery
Rattus norvegicus [20] = assay: Percentage decrease in systolic blood pressure after 4 hr at 0.3 mg/kg administered perorally in rats; assay type: functional, Artery
Rattus norvegicus [21] = assay: Percentage decrease in systolic blood pressure after 4 hr at 3 mg/kg administered perorally in rats; assay type: functional, Artery
Rattus norvegicus [22] = assay: percentage decrease in heart rate after 1 hr at a dose of 30 mg/kg administered perorally in rats; assay type: functional
Rattus norvegicus [23] = assay: Percentage decrease in systolic blood pressure after 4 hr at 10 mg/kg administered perorally in rats; assay type: functional, Artery
Rattus norvegicus [24] = assay: percentage decrease in heart rate after 6 hr at a dose of 30 mg/kg administered perorally in rats; assay type: functional
Rattus norvegicus [25] = assay: Percentage decrease in systolic blood pressure after 6 hr at 3 mg/kg administered perorally in rats; assay type: functional, Artery
Rattus norvegicus [26] = assay: Percentage decrease in systolic blood pressure after 24 hr at 10 mg/kg administered perorally in rats; assay type: functional, Artery
Rattus norvegicus [27] = assay: Percentage decrease in systolic blood pressure after 24 hr at 1 mg/kg administered perorally in rats; assay type: functional, Artery
Rattus norvegicus [28] = assay: Percentage decrease in systolic blood pressure after 4 hr at 30 mg/kg administered perorally in rats; assay type: functional, Artery
Rattus norvegicus [29] = assay: percentage decrease in heart rate after 6 hr at a dose of 3 mg/kg administered perorally in rats; assay type: functional
Rattus norvegicus [30] = assay: percentage decrease in heart rate after 1 hr at a dose of 0.3 mg/kg administered perorally in rats; assay type: functional
Rattus norvegicus [31] = assay: percentage decrease in heart rate after 1 hr at a dose of 1 mg/kg administered perorally in rats; assay type: functional
Rattus norvegicus [32] = assay: Percentage decrease in systolic blood pressure after 1 hr at 1 mg/kg administered perorally in rats; assay type: functional, Artery
Rattus norvegicus [33] = assay: percentage decrease in heart rate after 4 hr at a dose of 0.3 mg/kg administered perorally in rats; assay type: functional
Rattus norvegicus [34] = assay: percentage decrease in heart rate after 1 hr at a dose of 10 mg/kg administered perorally in rats; assay type: functional
Rattus norvegicus [35] = assay: percentage decrease in heart rate after 4 hr at a dose of 3 mg/kg administered perorally in rats; assay type: functional
Rattus norvegicus [36] = assay: percentage decrease in heart rate after 24 hr at a dose of 3 mg/kg administered perorally in rats; assay type: functional
Rattus norvegicus [37] = assay: Percentage decrease in systolic blood pressure after 1 hr at 10 mg/kg administered perorally in rats; assay type: functional, Artery
Rattus norvegicus [38] = assay: percentage decrease in heart rate after 4 hr at a dose of 10 mg/kg administered perorally in rats; assay type: functional
Rattus norvegicus [39] = assay: percentage decrease in heart rate after 24 hr at a dose of 10 mg/kg administered perorally in rats; assay type: functional

## C#CCN1CCC2=C(C1)c1c(O)cc(C(C)CCCc3ccc(F)cc3)cc1OC2(C)C (centres undefined)
Rattus norvegicus [1]
  Heart rate: -7%
Rattus norvegicus [2]
  Heart rate: -18%
Rattus norvegicus [3]
  Decrease in Systolic blood pressure: 5%
Rattus norvegicus [4]
  Heart rate: 1%
Rattus norvegicus [5]
  Decrease in Systolic blood pressure: 33%
Rattus norvegicus [6]
  Decrease in Systolic blood pressure: 11%
Rattus norvegicus [7]
  Decrease in Systolic blood pressure: -5%
Rattus norvegicus [8]
  Decrease in Systolic blood pressure: 8%
Rattus norvegicus [9]
  Heart rate: -12%
Rattus norvegicus [10]
  Decrease in Systolic blood pressure: -5%
Rattus norvegicus [11]
  Heart rate: 3%
Rattus norvegicus [12]
  Decrease in Systolic blood pressure: -3%
Rattus norvegicus [13]
  Decrease in Systolic blood pressure: 43%
Rattus norvegicus [14]
  Decrease in Systolic blood pressure: 26%
Rattus norvegicus [15]
  Heart rate: -5%
Rattus norvegicus [16]
  Heart rate: 5%
Rattus norvegicus [17]
  Heart rate: 16%
Rattus norvegicus [18]
  Decrease in Systolic blood pressure: 17%
Rattus norvegicus [19]
  Decrease in Systolic blood pressure: 20%
Rattus norvegicus [20]
  Decrease in Systolic blood pressure: -7%
Rattus norvegicus [21]
  Decrease in Systolic blood pressure: 27%
Rattus norvegicus [22]
  Heart rate: 5%
Rattus norvegicus [23]
  Decrease in Systolic blood pressure: 30%
Rattus norvegicus [24]
  Heart rate: 36%
Rattus norvegicus [25]
  Decrease in Systolic blood pressure: 9%
Rattus norvegicus [26]
  Decrease in Systolic blood pressure: 20%
Rattus norvegicus [27]
  Decrease in Systolic blood pressure: 9%
Rattus norvegicus [28]
  Decrease in Systolic blood pressure: 23%
Rattus norvegicus [29]
  Heart rate: -7%
Rattus norvegicus [30]
  Heart rate: -29%
Rattus norvegicus [31]
  Heart rate: -9%
Rattus norvegicus [32]
  Decrease in Systolic blood pressure: 1%
Rattus norvegicus [33]
  Heart rate: -10%
Rattus norvegicus [34]
  Heart rate: -3%
Rattus norvegicus [35]
  Heart rate: 10%
Rattus norvegicus [36]
  Heart rate: -14%
Rattus norvegicus [37]
  Decrease in Systolic blood pressure: 34%
Rattus norvegicus [38]
  Heart rate: -2%
Rattus norvegicus [39]
  Heart rate: -6%
